We go through nine compounds from ChEMBL document CHEMBL1158490, “Discovery of leukotriene A4 hydrolase inhibitors using metabolomics biased fragment crystallography” (J Med Chem, 2009).

In general, IC50 refers to the concentration that inhibits the measured activity by half.

In the assay the target is T1, Leukotriene A-4 hydrolase (Homo sapiens, UniProt P09960).
T1 sequence (P09960 whole entry): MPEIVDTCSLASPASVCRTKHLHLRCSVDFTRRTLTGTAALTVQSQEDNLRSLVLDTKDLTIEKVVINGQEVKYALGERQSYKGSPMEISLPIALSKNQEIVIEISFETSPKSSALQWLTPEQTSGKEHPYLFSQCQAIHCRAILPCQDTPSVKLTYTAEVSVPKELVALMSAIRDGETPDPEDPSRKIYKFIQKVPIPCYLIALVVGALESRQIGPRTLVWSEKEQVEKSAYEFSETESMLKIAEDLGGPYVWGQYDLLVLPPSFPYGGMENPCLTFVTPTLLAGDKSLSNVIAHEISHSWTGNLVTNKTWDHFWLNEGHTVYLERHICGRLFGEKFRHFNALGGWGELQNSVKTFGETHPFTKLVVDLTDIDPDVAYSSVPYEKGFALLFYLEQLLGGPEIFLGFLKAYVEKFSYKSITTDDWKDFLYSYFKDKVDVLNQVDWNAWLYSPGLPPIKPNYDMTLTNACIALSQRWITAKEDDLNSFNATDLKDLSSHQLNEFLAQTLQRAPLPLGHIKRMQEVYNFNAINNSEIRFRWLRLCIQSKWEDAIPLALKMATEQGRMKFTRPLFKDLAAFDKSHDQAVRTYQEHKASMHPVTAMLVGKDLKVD
The assay is described as follows: Inhibition of peptidase activity of human recombinant LTA4H expressed in Escherichia coli BL21-AI/pRARE.
For `c1ccc(NCc2cccnc2)cc1`, the IC50 is 1320 µM. Then `Oc1ccc2[nH]ccc2c1`, with more than 1000 µM. For `CNCc1ccccc1-c1cccs1` the value was 1080 µM; for `Fc1ccc2[nH]ccc2c1`, more than 1000 µM; for `OC(c1ccncc1)c1ccc(OCCN2CCCC2)cc1` (centres undefined), 202 µM. Regarding `O=C(O)C1CCN(CCOc2ccc3[nH]ccc3c2)CC1`, the IC50 was determined as 1490 µM. With `c1cc2cc(OCCN3CCCC3)ccc2[nH]1`, the IC50 worked out at 321 µM. Then `c1ccc(CNc2ccc(OC[C@H]3CCCN3)cc2)cc1`, with 0.207 µM. As for `Oc1ccc(CCc2cc(O)cc(O)c2)cc1` [DIHYDRORESVERATROL], the IC50 was determined as 145 µM.
